Test results reported in publication PMC6006285, “Specific stereochemistry of OP-1074 disrupts estrogen receptor alpha helix 12 and confers pure antiestrogenic activity” (Nature Communications, 2018).
Read-outs that look alike come from different tables or passages of the source.

Experiments:
androgen receptor (AR) = target: T1, androgen receptor (AR) (Homo sapiens, UniProt P10275); assay: PRE3X-TATA-Luc reporter in HeLa cells transfected with AR; type: cell-based; conditions: alone or + 32 nM R1881, 22 h
T1 construct: HeLa cells were transfected as above but also with plasmids for full length wild; expressed in transfected cells; host or cells: HeLa
T1 sequence (P10275 1-920): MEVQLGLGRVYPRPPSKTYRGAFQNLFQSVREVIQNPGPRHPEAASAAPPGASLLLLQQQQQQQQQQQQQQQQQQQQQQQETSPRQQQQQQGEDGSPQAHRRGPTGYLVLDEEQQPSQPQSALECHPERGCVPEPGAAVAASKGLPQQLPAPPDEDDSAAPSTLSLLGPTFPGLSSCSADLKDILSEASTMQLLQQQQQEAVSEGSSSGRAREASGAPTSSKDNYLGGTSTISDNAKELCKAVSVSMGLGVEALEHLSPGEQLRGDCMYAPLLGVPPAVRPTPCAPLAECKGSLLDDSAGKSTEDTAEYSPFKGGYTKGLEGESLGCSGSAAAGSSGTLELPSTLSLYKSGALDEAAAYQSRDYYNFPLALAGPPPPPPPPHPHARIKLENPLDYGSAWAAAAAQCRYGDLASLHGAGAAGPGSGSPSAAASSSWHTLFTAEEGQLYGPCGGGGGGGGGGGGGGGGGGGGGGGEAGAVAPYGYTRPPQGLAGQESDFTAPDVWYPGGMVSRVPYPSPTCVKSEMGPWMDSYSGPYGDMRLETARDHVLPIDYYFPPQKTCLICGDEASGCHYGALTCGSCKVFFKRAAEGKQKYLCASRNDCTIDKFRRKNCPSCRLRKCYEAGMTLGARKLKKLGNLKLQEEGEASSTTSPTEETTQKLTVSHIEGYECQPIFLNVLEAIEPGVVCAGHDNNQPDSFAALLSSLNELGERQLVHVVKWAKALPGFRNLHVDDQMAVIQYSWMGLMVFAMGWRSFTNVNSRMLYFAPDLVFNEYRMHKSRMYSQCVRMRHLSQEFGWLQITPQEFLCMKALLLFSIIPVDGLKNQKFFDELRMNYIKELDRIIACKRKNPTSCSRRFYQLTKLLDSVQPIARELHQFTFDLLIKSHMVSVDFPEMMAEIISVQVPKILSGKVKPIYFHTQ
Protocol: (§1) representative experiment. […]
(§2) receptor (AR, (B)), glucocorticoid receptor (GR, (C)), and the B-isoform of the progesterone receptor (PR-B, (D)). HeLa cells were transfected with the designated wild type receptor along with reporter gene PRE3X-TATA-Luc, which is promiscuously activated with known agonists specific for each receptor: R1881 for AR, dexamethasone (Dex) for GR, and medroxyprogesterone acetate (MPA) for PR-B. Each receptor was also dosed with one concentration of known antagonist for each receptor: 32 nM bicalutamide for AR, and 500 nM RU486 for GR and PR. Transfected cells were treated with the designated ligands for 22 hours and luciferase activity assayed. Shown are representative experiments, independently performed at least 3 times. Note that curves for agonists for each receptor were performed in separate experiments. Shown are means with SEM, normalized to percent of 32 nM R1881 for AR, 32 nM Dex for GR, and 0.5 µM MPA for PR-B (except with MPA alone, which was normalized to […]
(§3) either ERα or ERβ, and 85 ng ERE-3x-Luc, containing 3 copies of estrogen-response element (ERE) cloned into pGL4.23 luciferase reporter gene containing a minimal TATA promoter […]
(§4) hours (1.25% total final charcoal dextran stripped FBS). Bright Glo luciferase reagent (Promega) […]

[1] = target: T2, B-isoform of the progesterone receptor (PR-B) (Homo sapiens, UniProt P06401); assay: PRE3X-TATA-Luc reporter in HeLa cells transfected with PR-B; type: cell-based; conditions: alone or + 500 nM MPA, 22 h
T2 construct: HeLa cells were transfected as above but also with plasmids for full length wild; expressed in transfected cells; host or cells: HeLa
T2 sequence (P06401 1-933): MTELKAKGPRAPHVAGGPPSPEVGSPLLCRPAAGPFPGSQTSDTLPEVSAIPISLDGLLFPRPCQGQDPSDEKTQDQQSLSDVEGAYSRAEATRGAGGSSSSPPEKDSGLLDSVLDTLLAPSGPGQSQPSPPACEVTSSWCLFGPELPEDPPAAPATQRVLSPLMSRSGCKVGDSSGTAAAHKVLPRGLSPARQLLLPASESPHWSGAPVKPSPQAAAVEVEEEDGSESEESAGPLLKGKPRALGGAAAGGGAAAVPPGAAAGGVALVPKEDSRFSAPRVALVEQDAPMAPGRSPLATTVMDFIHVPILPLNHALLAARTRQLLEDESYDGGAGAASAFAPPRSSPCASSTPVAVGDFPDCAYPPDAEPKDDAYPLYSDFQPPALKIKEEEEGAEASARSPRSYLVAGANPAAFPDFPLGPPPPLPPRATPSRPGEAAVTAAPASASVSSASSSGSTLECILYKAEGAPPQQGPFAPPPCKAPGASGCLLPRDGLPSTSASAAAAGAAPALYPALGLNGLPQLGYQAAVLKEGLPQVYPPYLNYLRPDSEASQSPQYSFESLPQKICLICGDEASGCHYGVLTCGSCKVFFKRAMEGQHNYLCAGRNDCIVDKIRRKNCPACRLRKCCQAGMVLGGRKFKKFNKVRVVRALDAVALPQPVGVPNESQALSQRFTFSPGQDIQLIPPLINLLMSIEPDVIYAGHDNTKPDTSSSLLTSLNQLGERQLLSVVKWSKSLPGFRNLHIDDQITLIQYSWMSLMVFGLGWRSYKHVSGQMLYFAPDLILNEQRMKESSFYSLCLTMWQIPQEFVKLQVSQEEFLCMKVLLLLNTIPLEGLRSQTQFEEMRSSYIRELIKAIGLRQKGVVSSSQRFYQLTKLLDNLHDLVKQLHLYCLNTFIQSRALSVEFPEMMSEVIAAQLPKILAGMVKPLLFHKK
Protocol: as §1, §2, §3, §4

MCF7/HER2/neu tumors = tested on: MCF7/HER2/neu tumors
Protocol: MCF7/HER2/neu cells were grown in culture and implanted into 6–7 week athymic ovariectomized female nu/nu mice (Taconic Biosciences). To stimulate tumor growth, 0.18 mg estradiol 90 day release pellets (Innovative Research) were implanted along with cells. […] Tumor volume and bodyweight were measured twice weekly. At end of the study animals were euthanized, tumors resected and snap frozen in liquid nitrogen, and uteri were resected, weighed, and fixed in 10% formalin.

[2] = tested on: estrogen responsive reporter gene, ERE-tk109-Luc, in MCF-7 cells; assay: Inhibition of E2-stimulated transcription of ERE-tk109-Luc reporter gene in MCF-7 cells; type: cell-based; conditions: Homo sapiens
[3] = number of 10 tumors at end of study, OP-1074 100 mg/kg oral twice daily, fulvestrant 100 mg/kg subcutaneous daily

With `CC1=C(c2ccc(O)cc2)[C@H](c2ccc(OCCN3CC[C@@H](C)C3)cc2)Oc2cc(O)ccc21` [OP-1074] the “Agonist and antagonist activity on AR” value (androgen receptor (AR)) was “lacks agonist and antagonist activity”, the “Agonist and antagonist activity on PR-B” value [1] was “lacks agonist and antagonist activity” and the Tolerability (MCF7/HER2/neu tumors; nude mice, 100 mg/kg dosed twice a day by oral gavage) was “well-tolerated with no adverse effects on behavior or mouse bodyweight”. The “Tumors shrunk / growth inhibited by >50%” value (MCF7/HER2/neu tumors; [3]) was “all ten”, the “Tumors shrunk >80%” value (MCF7/HER2/neu tumors; [3]) was 9/10 and the IC50 ([2]; MCF7, 22 h, read-out: IC50 inhibition of E2-stimulated transcription (Fig. 3a)) was 3.2 nM. It also gave an IC50 ([2]; MCF7, 24 h, read-out: IC50 transcription) of 1.8 ± 0.3 nM.
